The source of these data is US11602534B2, “Pyrimidine derivative kinase inhibitors” (HEFEI INSTITUTES OF PHYSICAL SCIENCE, CHINESE ACADEMY OF …, priority 2017, dated 2023).

Assay [1] deals with MV4-11 cells. The experiment in a line: Nude mouse model harboring subcutaneous MV4-11 tumor. The assay is classed as in vivo. The following applies: for tumor volume increase: oral gavage; for tumor growth in mice: MV4-11 subcutaneous tumor, daily oral gavage, four weeks. The procedure:
In order to determine the inhibitory effect of Compound 5 and Compound 135 on tumors in vivo, a nude mouse model harboring subcutaneous tumor was introduced. 44 mice (5-week-old) (Balb/c-nu female mice, purchased from Shanghai Snake Experimental Animal Co., Ltd.) were inoculated subcutaneously with MV4-11 cells at 1×10^7 cells/mouse, and the changes in body weight and tumor volume were recorded daily (tumor volume=tumor length×tumor width×tumor width/2). 10 days later, the mice, of which tumor volumes reached 200 mm^3, were randomized into seven groups with 5-9 mice in each group, and were treated as follows: the first group was administered daily by oral gavage with vehicle, i.e., methylcellulose-based aqueous suspension (purchased from Sinopharm Group Chemical Reagent Co., Ltd.); the second, third and the fourth groups were administered daily by oral gavage with 25 mg/kg, 50 mg/kg, 100 mg/kg of Compound 135 in a methylcellulose-based aqueous suspension formulation; the fifth, sixth and seventh groups were administered daily by oral gavage with 25 mg/kg, 50 mg/kg, 100 mg/kg of Compound 5 in a methylcellulose-based aqueous suspension formulation. The first day of administration was recorded as day 0, followed by continuous administration for four weeks (FIGS. 3a-3b).

A short description of assay [2]: Phosphorylation of STATS downstream of FLT3 in AML cells. The assay is classed as cell-based, human. Conditions: MV-4-11, MOLM13 and MOLM-14; 4 hours; compounds 0.01-3 μM, PKC412 1 μM. The procedure:
(§1) In cells having FLT3 gene and/or FLT3/ITD mutant gene, specifically, human acute myeloid leukemia cells MV4-11 (expressing FLT3/ITD mutant gene) cell strain and human acute myeloid leukemia cells MOLM-13 and MOLM-14 (expressing FLT3/ITD mutant gene and wild-type FLT3 gene) cell strains, Compound 5, Compound 135 and a FLT3 kinase inhibitor, PKC412 (purchased from Hao Yuan Chemexpress Company, Shanghai), which was used as the control, were evaluated for their effects in cells on phosphorylation of FLT3 and FLT3/ITD protein kinase and phosphorylation of the closely-related STATS protein which is downstream of FLT3 signaling pathways, as well as their effects on phosphorylation of other relevant protein kinases such as ERK and AKT, by assaying a number of cellular biochemical and functional endpoints. In addition, the effects on C-Myc and phosphorylation of the transcription factor NF-κB subunit p65 was also examined (FIGS. 1a-1f). Compound 5 and Compound 135 at different concentrations (0 μM, 0.01 μM, 0.03 μM, 0.1 μM, 0.3 μM, 1 μM, 3 μM in DMSO) and the FLT3 kinase inhibitor PKC412 (1 μM in DMSO) were used to treat acute myeloid leukemia cells MV-4-11, MOLM13 and MOLM-14 that had FLT3 and/or FLT3/ITD gene for 4 hours, respectively, and then the samples were collected. The effects of the compounds on the phosphorylation of proteins such as STATS, C-Myc, ERK, NF-κB p65, AKT in cells were tested (FIGS. 1a-1f).

The subject of assay [3] is C-Myc. The experiment in a line: Degradation of C-Myc in AML cells. The format is cell-based, human. The following applies: MV-4-11, MOLM13 and MOLM-14; 4 hours; compounds 0.01-3 μM, PKC412 1 μM. The procedure:
as §1

Assay [4] deals with human chronic lymphatic leukemia cell strain MEC-1. Put plainly: Proliferation of MEC-1 cells, Cell Titer-Glo. The assay is classed as cell-based. Conditions: MEC1, 72 hours. The procedure:
(§2) In addition, in this example the inhibitory activity of preferred compounds (Compound 5 and Compound 135) was tested against the following cell strains: human acute myeloid leukemia cell strain MV4-11 (expressing FLT3/ITD mutant gene), human acute myeloid leukemia cell strain MOLM-13 (expressing FLT3/ITD mutant gene and wild-type FLT3 gene), human acute myeloid leukemia cell strain MOLM-14 (expressing FLT3/ITD mutant gene and wild-type FLT3 gene), human acute myeloid leukemia cell strain OCI-AML-3 (expressing FLT3 A680V mutant gene), human chronic lymphatic leukemia cell strain MEC-1, Chinese hamster lung (CHL) cells, Chinese hamster ovary (CHO) cells, wherein all the cells were purchased from ATCC. In the example the compounds of the present invention were added respectively into the above cells at different concentrations (0.000508 μM, 0.00152 μM, 0.00457 μM, 0.0137 μM, 0.0411 μM, 0.123 μM, 0.370 μM, 1.11 μM, 3.33 μM, 10 μM in DMSO) and the cells were incubated for 72 hours. The number of viable cells was determined by quantification of ATP in living cells using Cell Titer-Glo® (Promega, the USA) Luminescent Cell Viability Assay kit and thereby GI50 was calculated.
(In general: In ATP-based viability assays light output follows the ATP content of the culture.)

The test system of assay [5] is P210-BaF3. The experiment in a line: Proliferation of P210-BaF3 cells, CCK8 cell viability assay. The assay is classed as cell-based. Conditions: Mus musculus, 72 hours, stably expressing BCR-ABL mutant activated kinase. The method, boiled down: (§3)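 Human kinase-region sequences were PCR-amplified, fused behind N-terminal TEL in MSCV-Puro and stably introduced into mouse BaF3 by retrovirus. IL-3 was then removed to give kinase-dependent lines. Compound effects on these and on parental BaF3 are scored as GI50 (μM) via CCK8 viable-cell quantification.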

In assay [6] the test system is human acute myeloid leukemia cell strain MOLM-13. The experiment in a line: Proliferation of MOLM-13 cells, Cell Titer-Glo. The following applies: for GI50: Homo sapiens, MOLM-13, 72 hours, Cell Titer-Glo, FLT3/ITD and wild-type FLT3, read-out: GI50 MOLM13. The format is cell-based. The procedure:
as §2

The subject of assay [7] is Tel-cKit/T670I-BaF3. The experiment in a line: Proliferation of Tel-cKit/T670I-BaF3 cells, CCK8 cell viability assay. The assay is classed as cell-based. The following applies: Mus musculus, 72 hours, stably expressing cKIT/T670I. In short, it runs like this:
as §3
In general terms: Tetrazolium assays rely on reduction of a dye to a coloured formazan, in cell work by metabolically active cells.

For the compound `CC(=O)Nc1cc(Oc2ccc(NC(=O)Cc3ccc(F)cc3F)cc2)ncn1` [Example 5, N-[4-(6-acetylamino-pyrimidin-4-yloxy)-phenyl]-2-(2,4-difluoro-phenyl)-acetamide], the tumor volume increase entry in assay [1] (50 mg/kg/day) is on record as “slowed significantly”; in assay [1] (100 mg/kg/day), “slowed vastly”. Moreover, in assay [1], the “tumor growth in mice” value is “significantly inhibited”. In assay [2], the “phosphorylation of STATS” value is reported as “significant inhibition”. Besides, the “degradation of C-Myc” value in assay [3] is on record as “significant effects on the degradation”. Moreover, the GI50 – broadly, the concentration at which growth is held to half of that of the control – in assay [4] was above 10 µM; in assay [5], above 10 µM; in assay [6], 0.267 µM; in assay [7], above 10 µM. In addition, the “inhibition of MOLM13 (in words)” value in assay [6] (summary of Table 3) was “selectively and strongly inhibited”.
Regarding `CC(=O)Nc1cc(Oc2ccc(NC(=O)Cc3ccccc3C(F)(F)F)cc2)ncn1` [Example 135, N-[4-(6-acetylamino-pyrimidin-4-yloxy)-phenyl]-2-(2-trifluoromethyl-phenyl)-acetamide], the figures for the tumor volume increase result in assay [1] (50 mg/kg/day) and in assay [1] (100 mg/kg/day) were “slowed significantly” and “slowed vastly”, respectively. In assay [1], the “tumor growth in mice” value is reported as “significantly inhibited”. Besides, the “phosphorylation of STATS” value in assay [2] is listed as “significant inhibition”. Besides, in assay [3], the “degradation of C-Myc” value is recorded as “significant effects on the degradation”. Also, the GI50 is above 10 µM in assay [4], above 10 µM in assay [5], 0.466 µM in assay [6] and above 10 µM in assay [7].
